test system: Z-138 cells; experiment: Z-138 Methylation Assay (In Cell Western for symmetric di-methyl arginine and DNA content); type: cell-based; conditions: Homo sapiens, Table A-2, 96 hours, symmetric di-methyl arginine, read-out: ICW EC50
Description: Z-138 suspension cells were purchased from ATCC (American Type Culture Collection, Manassas, Va.). RPMI/Glutamax medium, penicillin-streptomycin, heat inactivated fetal bovine serum, and D-PBS were purchased from Life Technologies, Grand Island, N.Y., USA. Odyssey blocking buffer, 800CW goat anti-rabbit IgG (H+L) antibody, and Licor Odyssey infrared scanner were purchased from Licor Biosciences, Lincoln, Nebr., USA. Symmetric di-methyl arginine antibody was purchased from EMD Millipore, Billerica, Mass., USA. 16% Paraformaldehyde was purchased from Electron Microscopy Sciences, Hatfield, Pa., USA.
Z-138 suspension cells were maintained in growth medium (RPMI 1640 supplemented with 10% v/v heat inactivated fetal bovine serum and 100 units/mL penicillin-streptomycin) and cultured at 37° C. under 5% CO2.
Cell Treatment, in Cell Western (ICW) for Detection of Symmetric Di-Methyl Arginine and DNA Content.
Z-138 cells were seeded in assay medium at a concentration of 50,000 cells per mL to a 384-well cell culture plate with 50 μL per well. Compound (100 nL) from 384 well source plates was added directly to 384 well cell plate. Plates were incubated at 37° C., 5% CO2 for 96 hours. After four days of incubation, 40 μL of cells from incubated plates were added to poly-D-lysine coated 384 well culture plates (BD Biosciences 356697). Plates were incubated at room temperature for 30 minutes then incubated at 37° C., 5% CO2 for 5 hours. After the incubation, 40 μL per well of 8% paraformaldehyde in PBS (16% paraformaldahyde was diluted to 8% in PBS) was added to each plate and incubated for 30 minutes. Plates were transferred to a Biotek 405 plate washer and washed 5 times with 100 μL per well of wash buffer (1×PBS with 0.1% Triton X-100 (v/v)). Next 30 μL per well of Odyssey blocking buffer were added to each plate and incubated 1 hour at room temperature. Blocking buffer was removed and 20 μL per well of primary antibody was added (symmetric di-methyl arginine diluted 1:100 in Odyssey buffer with 0.1% Tween 20 (v/v)) and plates were incubated overnight (16 hours) at 4° C. Plates were washed 5 times with 100 μL per well of wash buffer. Next 20 μL per well of secondary antibody was added (1:200 800CW goat anti-rabbit IgG (H+L) antibody, 1:1000 DRAQS (Biostatus limited) in Odyssey buffer with 0.1% Tween 20 (v/v)) and incubated for 1 hour at room temperature. The plates were washed 5 times with 100 μL per well wash buffer then 1 time with 100 μL per well of water. Plates were allowed to dry at room temperature then imaged on the Licor Odyssey machine which measures integrated intensity at 700 nm and 800 nm wavelengths. Both 700 and 800 channels were scanned.
First, the ratio for each well was determined by:
Each plate included fourteen control wells of DMSO only treatment (minimum inhibition) as well as fourteen control wells for maximum inhibition treated with 3 μM of a reference compound (Background wells). The average of the ratio values for each control type was calculated and used to determine the percent inhibition for each test well in the plate. Reference compound was serially diluted three-fold in DMSO for a total of nine test concentrations, beginning at 3 μM. Percent inhibition was determined and IC50 curves were generated using triplicate wells per concentration of compound.

Structure (SMILES) | EC50
O=C(COc1cccc2c1CCCC2)NCC(O)CN1CCc2ccccc2C1 (centres unmarked) [Compound A64] | 101 to 1000 nM
O=C(COc1ccccc1C1CCCCC1)NCC(O)CN1CCc2ccccc2C1 (centres unmarked) [Compound A40] | 101 to 1000 nM
O=C(COc1ccccc1S(=O)(=O)N1CCNCC1)NCC(O)CN1CCc2ccccc2C1 (centres unmarked) [Compound A107] | < 100 nM
O=C(COc1ccccc1S(=O)(=O)N1CCCC1)NCC(O)CN1CCc2ccccc2C1 (centres unmarked) [Compound A110] | < 100 nM
CN(C)C(=O)c1ccccc1OCC(=O)NCC(O)CN1CCc2ccccc2C1 (centres unmarked) [Compound A113] | 101 to 1000 nM
CN(C)S(=O)(=O)c1ccccc1OCC(=O)NCC(O)CN1CCc2ccccc2C1 (centres unmarked) [Compound A109] | < 100 nM
Cc1ccccc1OCC(=O)NCC(O)CN1CCc2ccccc2C1 (centres unmarked) [Compound A15] | 101 to 1000 nM
N#Cc1cccc(OCC(=O)NCC(O)CN2CCc3ccccc3C2)c1 (centres unmarked) [Compound A8] | 101 to 1000 nM
O=C(COc1cccc2ccc(N3CCOCC3)nc12)NCC(O)CN1CCc2ccccc2C1 (centres unmarked) [Compound A48] | 101 to 1000 nM
NC(=O)c1cccc(OCC(=O)NCC(O)CN2CCc3ccccc3C2)c1 (centres unmarked) [Compound A34] | 101 to 1000 nM
CS(=O)(=O)c1ccccc1OCC(=O)NCC(O)CN1CCc2ccccc2C1 (centres unmarked) [Compound A37] | < 100 nM
CN1CCC(n2cnc3ccc(OCC(=O)NCC(O)CN4CCc5ccccc5C4)cc32)CC1 (centres unmarked) [Compound A71] | 101 to 1000 nM
Cn1cc2c(OCC(=O)NCC(O)CN3CCc4ccccc4C3)cccc2n1 (centres unmarked) [Compound A118] | 1000 to 10000 nM
O=C(COc1cccc2cccnc12)NCC(O)CN1CCc2ccccc2C1 (centres unmarked) [Compound A6] | < 100 nM
N#Cc1ccc(OCC(=O)NCC(O)CN2CCc3ccccc3C2)cc1 (centres unmarked) [Compound A11] | 101 to 1000 nM
O=C(COc1cccc2c1OCC(=O)N2)NCC(O)CN1CCc2ccccc2C1 (centres unmarked) [Compound A124] | 1000 to 10000 nM
CS(=O)(=O)c1cccc(OCC(=O)NCC(O)CN2CCc3ccccc3C2)c1 (centres unmarked) [Compound A47] | 101 to 1000 nM
